Laboratory results as given in article PMC6175931, “Structural insights into the electron/proton transfer pathways in the quinol:fumarate reductase from Desulfovibrio gigas” (Scientific Reports, 2018).

Target: T1, quinol:fumarate reductase (QFR), site in subunit A (FAD-binding protein) (Megalodesulfovibrio gigas, UniProt T2GB49)
T1 construct: gene fdrA; native, purified from D. gigas membranes in DDM; A2B2C2 homo-dimer; subunit A 627 residues (1-622 built), B 264, C 218; with Fumarate reductase iron-sulfur subunit; Fumarate reductase cytochrome b subunit
T1 sequence (T2GB49 1-627): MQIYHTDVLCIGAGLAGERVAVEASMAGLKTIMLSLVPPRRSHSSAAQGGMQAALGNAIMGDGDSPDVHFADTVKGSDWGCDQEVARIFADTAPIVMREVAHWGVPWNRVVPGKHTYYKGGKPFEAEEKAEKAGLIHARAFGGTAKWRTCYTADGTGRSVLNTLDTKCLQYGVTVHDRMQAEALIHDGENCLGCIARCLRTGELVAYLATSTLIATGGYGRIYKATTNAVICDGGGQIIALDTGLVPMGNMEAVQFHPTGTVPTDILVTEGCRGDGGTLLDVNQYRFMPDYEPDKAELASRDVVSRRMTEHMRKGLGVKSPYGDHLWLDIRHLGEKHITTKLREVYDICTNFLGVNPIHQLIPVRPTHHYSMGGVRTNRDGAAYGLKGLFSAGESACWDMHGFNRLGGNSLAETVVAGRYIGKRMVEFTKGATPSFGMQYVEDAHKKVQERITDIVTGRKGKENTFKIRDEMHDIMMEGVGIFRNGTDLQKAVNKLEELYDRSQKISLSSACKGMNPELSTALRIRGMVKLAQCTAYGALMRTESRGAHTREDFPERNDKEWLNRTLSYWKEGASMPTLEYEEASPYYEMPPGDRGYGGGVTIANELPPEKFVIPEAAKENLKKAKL
T1 sequence (T2G9X8 1-264 partner): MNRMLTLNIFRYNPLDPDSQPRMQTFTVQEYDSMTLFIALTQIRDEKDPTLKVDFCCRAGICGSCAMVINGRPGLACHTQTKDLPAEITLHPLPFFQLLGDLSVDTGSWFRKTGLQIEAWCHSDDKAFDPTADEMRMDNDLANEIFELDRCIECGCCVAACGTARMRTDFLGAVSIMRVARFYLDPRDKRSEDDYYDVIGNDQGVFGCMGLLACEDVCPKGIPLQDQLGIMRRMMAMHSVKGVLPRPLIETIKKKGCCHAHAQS
T1 sequence (T2GAT5 1-218 partner): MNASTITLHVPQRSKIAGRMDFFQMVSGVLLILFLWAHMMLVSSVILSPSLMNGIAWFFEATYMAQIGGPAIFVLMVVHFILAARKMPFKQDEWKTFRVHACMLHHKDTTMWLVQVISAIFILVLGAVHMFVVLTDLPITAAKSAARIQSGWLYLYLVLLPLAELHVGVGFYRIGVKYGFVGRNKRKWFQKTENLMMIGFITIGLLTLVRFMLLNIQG
Assay: X-ray crystal structure, […] Å
Conditions: crystals at pH 8.5

Row | SMILES | X-ray crystal structure, 3.6 Å (covalent, C8M methyl of flavin to His-A43) | X-ray crystal structure, 3.6 Å (fumarate site near the FAD in subunit A)
1 | Cc1cc2nc3c(=O)[nH]c(=O)nc-3n(C[C@H](O)[C@H](O)[C@H](O)COP(=O)(O)OP(=O)(O)OC[C@H]3O[C@@H](n4cnc5c(N)ncnc54)[C@H](O)[C@@H]3O)c2cc1C [FAD, flavin adenine dinucleotide] | FAD binds to the FAD-binding domain through a covalent bond with residue His-A43 | 
2 | O=C(O)/C=C/C(=O)O [fumarate] |  | A fumarate molecule is also observed near the FAD in the A subunit
